The structures appear in SMILES notation.

The assay deals with T1, Angiotensin II receptor (Rattus norvegicus, UniProt P29089+P25095+P35351).
T1 sequence (P29089 whole entry): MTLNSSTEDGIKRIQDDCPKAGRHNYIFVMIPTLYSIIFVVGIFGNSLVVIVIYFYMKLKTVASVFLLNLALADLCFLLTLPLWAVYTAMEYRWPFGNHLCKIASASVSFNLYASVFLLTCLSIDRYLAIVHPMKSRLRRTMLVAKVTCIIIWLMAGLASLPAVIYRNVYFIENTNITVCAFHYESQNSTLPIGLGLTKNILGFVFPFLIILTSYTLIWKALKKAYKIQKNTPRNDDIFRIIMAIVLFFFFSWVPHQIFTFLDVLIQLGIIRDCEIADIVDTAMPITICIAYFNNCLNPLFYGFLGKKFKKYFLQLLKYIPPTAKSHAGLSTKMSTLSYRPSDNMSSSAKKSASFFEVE
T1 sequence (P25095 whole entry): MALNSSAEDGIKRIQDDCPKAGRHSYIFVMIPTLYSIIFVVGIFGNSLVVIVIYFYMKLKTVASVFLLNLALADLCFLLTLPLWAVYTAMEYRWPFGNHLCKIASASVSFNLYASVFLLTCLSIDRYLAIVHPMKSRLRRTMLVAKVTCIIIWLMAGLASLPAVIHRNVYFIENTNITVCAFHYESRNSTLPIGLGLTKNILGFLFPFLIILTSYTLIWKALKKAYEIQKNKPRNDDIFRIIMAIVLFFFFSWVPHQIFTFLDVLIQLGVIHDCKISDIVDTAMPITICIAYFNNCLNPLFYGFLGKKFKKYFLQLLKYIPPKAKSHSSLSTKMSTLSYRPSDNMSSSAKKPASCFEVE
T1 sequence (P35351 whole entry): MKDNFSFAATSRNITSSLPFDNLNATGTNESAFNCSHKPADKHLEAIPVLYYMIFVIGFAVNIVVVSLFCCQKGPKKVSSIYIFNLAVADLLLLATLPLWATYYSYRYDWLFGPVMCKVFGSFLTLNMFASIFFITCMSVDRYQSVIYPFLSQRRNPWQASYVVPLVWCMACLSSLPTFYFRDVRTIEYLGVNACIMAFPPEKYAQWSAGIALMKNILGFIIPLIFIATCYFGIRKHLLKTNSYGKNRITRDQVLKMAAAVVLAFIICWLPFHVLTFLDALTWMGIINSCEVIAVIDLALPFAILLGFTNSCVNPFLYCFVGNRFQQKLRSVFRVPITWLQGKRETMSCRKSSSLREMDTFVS
Briefly: Displacement of [3H]-AII from the Angiotensin II receptor isolated from the liver of rats. In general terms: In a radioligand displacement assay an active substance lowers the binding of a labelled ligand.
As to `Cc1cc(S(=O)(=O)c2ccc(-c3ccccc3-c3nn[nH]n3)cc2)c2ccccc2[n+]1[O-]`, the IC50 was greater than 10000 nM. Consider `Cc1cc(CCc2ccc(-c3ccccc3-c3nn[nH]n3)cc2)c2ccccc2n1`, for which the IC50 was found to be 270 nM. The result for `Cc1nc(Sc2ccc(-c3ccccc3-c3nn[nH]n3)cc2)c2ccccc2n1` reads 350 nM; that for `Cc1nc(Sc2ccc(-c3ccccc3-c3nn[nH]n3)cc2)c2cc[nH]c2n1`, greater than 10000 nM; that for `Cc1cc(SCc2ccc(-c3ccccc3-c3nn[nH]n3)cc2)c2ccccc2n1`, 370 nM.

Regarding `CCc1cc(Sc2ccc(-c3ccccc3-c3nn[nH]n3)cc2)c2ncccc2n1`, the IC50 was determined as 20 nM.

The molecule `Cc1cc(Sc2ccc(-c3ccccc3-c3nnn(C(c4ccccc4)(c4ccccc4)c4ccccc4)n3)cc2)c2ccccc2n1` returned an IC50 of 4700 nM. The molecule `Cc1cc(OCc2ccc(-c3ccccc3-c3nn[nH]n3)cc2)c2ccccc2n1` yielded a concentration for half-maximal inhibition (IC50) of 31 nM. Against the preceding molecule, the IC50 is about 150-fold lower.

The IC50 is the concentration that gives 50% inhibition. The low end stands for inhibition by little substance, the high end for a need for much substance.

(Values after ChEMBL document CHEMBL1128193, “4-(Heteroarylthio)-2-biphenylyltetrazoles as nonpeptide angiotensin II antagonists” (J Med Chem, 1995).)
